Like-named read-outs stand apart in the source and are kept apart here.
Columns and labels:
wildtype Kras / hSOS1 = target: T1, wildtype Kras / hSOS1 (Homo sapiens, UniProt P01116); assay: HTRF assay, wildtype Kras / SOS1 interaction; type: binding; conditions: read-out: IC50 against wildtype Kras
T1 construct: made in house; host or cells: E. coli BL21 (DE3)
Method in brief: (§1)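 GST-tagged K-Ras (mutant or wildtype) with anti-GST-Eu donor was mixed with His-hSOS1 and anti-6His-XL665 acceptor in HEPES pH 7.4 buffer with NaCl, DTT, BSA and Igepal. After ≥10 min, HTRF was read (ex 337 nm, em 620/665 nm); 665/620 ratios gave IC50 from duplicate dilution series.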

[1] = target: GST-tagged K-Ras mutant / His-tagged hSOS1 (Homo sapiens, UniProt P01116); assay: HTRF assay, K-Ras mutant / SOS1 interaction; type: binding; conditions: read-out: IC50 against mutant Kras
GST-tagged K-Ras mutant / His-tagged hSOS1, sequence (P01116 whole entry G12D, form open): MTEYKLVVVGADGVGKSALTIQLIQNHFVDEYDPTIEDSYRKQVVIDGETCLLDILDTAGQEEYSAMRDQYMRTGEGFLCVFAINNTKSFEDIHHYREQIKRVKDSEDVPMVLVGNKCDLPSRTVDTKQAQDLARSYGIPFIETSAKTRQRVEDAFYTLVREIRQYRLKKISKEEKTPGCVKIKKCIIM
Method in brief: as §1

[2] = compound nos. 102-196, general methodology of example 5

T1 sequence (P01116 1-188 isoform P01116-2): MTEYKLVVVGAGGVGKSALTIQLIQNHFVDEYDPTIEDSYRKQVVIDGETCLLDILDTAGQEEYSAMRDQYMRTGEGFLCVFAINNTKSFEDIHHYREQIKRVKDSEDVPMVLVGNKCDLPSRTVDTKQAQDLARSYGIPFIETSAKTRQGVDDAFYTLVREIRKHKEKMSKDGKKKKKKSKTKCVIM

SMILES	IC50 (wildtype Kras / hSOS1; compound nos. 401-703)	IC50 ([1]; compound nos. 401-703)	IC50 (wildtype Kras / hSOS1; [2])	IC50 [1, 2]
N#Cc1c(N)sc2c(F)ccc(-c3c(Cl)cc4c(N5CCNCC(F)(F)C5)nc(OC[C@@]56CCCN5C[C@H](F)C6)nc4c3F)c12 [Compound 405, 2-amino-4-(6-chloro-4-(6,6-difluoro-1,4-diazepan-1-yl)-8-fluoro-2-(((2R,7aS)-2-fluorotetrahydro-1H-pyr-rolizin-7a(5H)-yl)methoxy)-quinazolin-7-yl)-7-fluoro-benzo[b]thiophene-3-carbonitrile]	< 500 nM	> 500 nM		
Nc1nc2c(-c3c(Cl)cc4c(N5CCNCC(F)(F)C5)nc(OCCCN5CCCC5)nc4c3F)ccc(F)c2s1 [Compound 555, 4-(6-chloro-4-(6,6-difluoro-1,4-diazepan-1-yl)-8-fluoro-2-(3-(pyrrolidin-1-yl)-propoxy)quinazolin-7-yl)-7-fluorobenzo[d]thiazol-2-amine]	> 500 nM	< 500 nM		
Oc1cc(-c2c(Cl)cc3c(N4CC5CCC(C4)N5)nc(OCC45CCCN4CCC5)nc3c2F)cc(C(F)(F)F)c1 [Compound 614, 3-(4-(3,8-diazabicyclo-[3.2.1]octan-3-yl)-6-chloro-8-fluoro-2-((tetrahydro-1H-pyrrolizin-7a(5H)-yl)meth-oxy)quinazolin-7-yl)-5-(trifluoromethyl)phenol]	> 500 nM	> 500 nM		
CN1CCC[C@H]1COc1nc(N2CCNC(=O)CC2)c2cc(Cl)c(-c3cccc4sc(N)nc34)c(F)c2n1 [Compound 142, 1-(7-(2-aminobenzo[d]-thiazol-4-yl)-6-chloro-8-fluoro-2-(((S)-1-methyl-pyrrolidin-2-yl)methoxy)-quinazolin-4-yl)-1,4-diazepan-5-one]			< 500 nM	< 500 nM
Nc1nc2c(-c3c(Cl)cc4c(N5CCCCC(F)(F)C5)nc(OCC56CCCN5CCC6)nc4c3F)cccc2s1 [Compound 116, 4-(6-chloro-4-(3,3-difluoro-azepan-1-yl)-8-fluoro-2-((tetrahydro-1H-pyrrolizin-7a(5H)-yl)methoxy)quin-azolin-7-yl)benzo[d]thiazol-2-amine]			< 500 nM	< 500 nM
N#Cc1c(N)sc2c(F)ccc(-c3c(Cl)cc4c(N5C[C@H]6CC[C@@H](C5)N6CC5COC5)nc(OC[C@@]56CCCN5C[C@H](F)C6)nc4c3F)c12 [Compound 643, 2-amino-4-(6-chloro-8-fluoro-2-(((2R,7aS)-2-fluorotetrahydro-1H-pyrrolizin-7a(5H)-yl)-methoxy)-4-((1R,5S)-8-(oxetan-3-yl-methyl)-3,8-diazabicyclo[3.2.1]-octan-3-yl)quinazolin-7-yl)-7-fluorobenzo[b]-thiophene-3-carbonitrile]	> 500 nM	< 500 nM		
Fc1c(Br)c(Cl)cc2c(N3CCNCC(F)(F)C3)nc(OCC34CCCN3CCC4)nc12 [Compound 599, 7-bromo-6-chloro-4-(6,6-difluoro-1,4-diazepan-1-yl)-8-fluoro-2-((tetrahydro-1H-pyrrolizin-7a(5H)-yl)meth-oxy)quinazoline]	> 500 nM	> 500 nM		
N#CCCc1cc2c(N3CC4CCC(C3)N4)nc(OC[C@@]34CCCN3C[C@H](F)C4)nc2c(F)c1-c1cccc2ccc(F)c(Cl)c12 [Compound 451, 3-(4-(3,8-diazabicyclo-[3.2.1]octan-3-yl)-7-(8-chloro-7-fluoronaphthalen-1-yl)-8-fluoro-2-(((2R,7aS)-2-fluorotetrahydro-1H-pyrrolizin-7a(5H)-yl)meth-oxy)quinazolin-6-yl)pro-panenitrile]	< 500 nM	> 500 nM		
CN1CCc2c(cccc2Oc2nc(N3CCNCC(F)(F)C3)c3cc(Cl)c(-c4cccc5sc(N)nc45)c(F)c3n2)C1 [Compound 153, 4-(6-chloro-4-(6,6-difluoro-1,4-diazepan-1-yl)-8-fluoro-2-((2-methyl-1,2,3,4-tetra-hydroisoquinolin-5-yl)oxy)-quinazolin-7-yl)benzo[d]-thiazol-2-amine]			> 500 nM	> 500 nM
Nc1nc2c(-c3c(Cl)cc4c(N5CCCOCC5)nc(OCC56CCCN5CCC6)nc4c3F)ccc(F)c2s1 [Compound 148, 4-(6-chloro-8-fluoro-4-(1,4-oxazepan-4-yl)-2-((tetra-hydro-1H-pyrrolizin-7a(5H)-yl)methoxy)quinazolin-7-yl)-7-fluorobenzo[d]thiazol-2-amine]			< 500 nM	< 500 nM
Nc1nc2c(-c3c(Cl)cc4c(N5CC6CCCC(C5)NC6)nc(OC[C@@]56CCCN5C[C@H](F)C6)nc4c3F)ccc(F)c2s1 (stereo partly drawn) [Compound 512, 4-(4-(3,9-diazabicyclo-[3.3.2]decan-3-yl)-6-chloro-8-fluoro-2-(((2R,7aS)-2-fluorotetrahydro-1H-pyrrol-izin-7a(5H)-yl)methoxy)-quinazolin-7-yl)-7-fluoro-benzo[d]thiazol-2-amine]	> 500 nM	< 500 nM		
CN1CCC[C@H]1COc1nc(N2CCNCC(F)(F)C2)c2cc(Cl)c(-c3cccc4oc(C#N)nc34)c(F)c2n1 [Compound 185, 4-(6-chloro-4-(6,6-difluoro-1,4-diazepan-1-yl)-8-fluoro-2-(((S)-1-methylpyrrolidin-2-yl)methoxy)quinazolin-7-yl)benzo[d]oxazole-2-carbonitrile]			> 500 nM	> 500 nM
Nc1nc2c(-c3c(Cl)cc4c(N5CCC6CCC(C5)N6)nc(OC[C@@]56CCCN5C[C@H](F)C6)nc4c3F)ccc(F)c2s1 (stereo partly drawn) [Compound 684, 4-(4-(3,9-diazabicyclo-[4.2.1]nonan-3-yl)-6-chloro-8-fluoro-2-(((2R,7aS)-2-fluorotetrahydro-1H-pyrrol-izin-7a(5H)-yl)methoxy)-quinazolin-7-yl)-7-fluoro-benzo[d]thiazol-2-amine]	> 500 nM	< 500 nM		
N#CC1CCCN(c2nc(OC[C@@]34CCCN3C[C@H](F)C4)nc3c(F)c(-c4ccc(F)c5sc(N)nc45)c(Cl)cc23)CC1 (stereo partly drawn) [Compound 433, 1-(7-(2-amino-7-fluoro-benzo[d]thiazol-4-yl)-6-chloro-8-fluoro-2-(((2R,7aS)-2-fluorotetra-hydro-1H-pyrrolizin-7a(5H)-yl)methoxy)quin-azolin-4-yl)azepane-4-carbonitrile]	< 500 nM	< 500 nM		
N#Cc1ccc2ccccc2c1-c1c(Cl)cc2c(N3CC4CCC(C3)N4)nc(OC[C@@]34CCCN3C[C@H](F)C4)nc2c1F [Compound 558, 1-(4-(3,8-diazabicyclo-[3.2.1]octan-3-yl)-6-chloro-8-fluoro-2-(((2R,7aS)-2-fluorotetrahydro-1H-pyrrol-izin-7a(5H)-yl)methoxy)-quinazolin-7-yl)-2-naph-thonitrile]	> 500 nM	> 500 nM		
Fc1c(-c2cccc3cn[nH]c23)ccc2c(N3CC4CCC(C3)N4)nc(OC[C@@]34CCCN3C[C@H](F)C4)nc12 [Compound 657, 4-(3,8-diazabicyclo[3.2.1]-octan-3-yl)-8-fluoro-2-(((2R,7aS)-2-fluorotetra-hydro-1H-pyrrolizin-7a(5H)-yl)methoxy)-7-(1H-indazol-7-yl)quinazoline]	> 500 nM	> 500 nM		
Oc1cc(-c2cnc3c(N4CC5CCC(C4)N5)nc(OC[C@@]45CCCN4C[C@H](F)C5)nc3c2)c2ccccc2c1 (single isomer, unassigned) [Compound 429]	< 500 nM	> 500 nM		
CN1CCC[C@H]1COc1nc(N2CCNCC(F)(F)C2)c2cc(Cl)c(-c3cccc4nc(N)sc34)c(F)c2n1 [Compound 184, 7-(6-chloro-4-(6,6-difluoro-1,4-diazepan-1-yl)-8-fluoro-2-(((S)-1-methylpyrrolidin-2-yl)methoxy)quinazolin-7-yl)benzo[d]thiazol-2-amine]			> 500 nM	> 500 nM
Nc1nc2c(-c3c(Cl)cc4c(N5CC6CCC(C5)N6)nc(OCC56CCCN5CCC6)nc4c3F)cc(F)cc2s1 [Compound 542, 4-(4-(3,8-diazabicyclo-[3.2.1]octan-3-yl)-6-chloro-8-fluoro-2-((tetrahydro-1H-pyrrolizin-7a(5H)-yl)meth-oxy)quinazolin-7-yl)-6-fluorobenzo[d]thiazol-2-amine]	> 500 nM	< 500 nM		
Nc1c(-c2c(Cl)cc3c(N4CC5CCC(C4)N5)nc(OCC45CCCN4CCC5)nc3c2F)cccc1C(F)(F)F [Compound 527, 2-(4-(3,8-diazabicyclo-[3.2.1]octan-3-yl)-6-chloro-8-fluoro-2-((tetrahydro-1H-pyrrolizin-7a(5H)-yl)meth-oxy)quinazolin-7-yl)-6-(trifluoromethyl)aniline]	> 500 nM	> 500 nM		
CN1CCC[C@H]1COc1nc(N2CCNCC(F)(F)C2)c2cc(Cl)c(-c3cccc4oc(N)nc34)c(F)c2n1 [Compound 158, 4-(6-chloro-4-(6,6-difluoro-1,4-diazepan-1-yl)-8-fluoro-2-(((S)-1-methylpyrrolidin-2-yl)methoxy)quinazolin-7-yl)benzo[d]oxazol-2-amine]			< 500 nM	< 500 nM
Cc1ccnc(C(C)C)c1-n1c(=O)nc(N2CC3CCC(C2)N3)c2cc(F)c(-c3c(O)cccc3F)nc21 [Compound 687, 4-(3,8-diazabicyclo[3.2.1]-octan-3-yl)-6-fluoro-7-(2-fluoro-6-hydroxyphenyl)-1-(2-isopropyl-4-methylpyr-idin-3-yl)pyrido[2,3-d]pyr-imidin-2(1H)-one]	> 500 nM	> 500 nM		
OC1Cc2ccccc2N(c2ccc3c(N4CC5CCC(C4)N5)nc(OCC45CCCN4CCC5)nc3c2F)C1 (stereo not shown) [Compound 538, 1-(4-(3,8-diazabicyclo-[3.2.1]octan-3-yl)-8-fluoro-2-((tetrahydro-1H-pyrrol-izin-7a(5H)-yl)methoxy)-quinazolin-7-yl)-1,2,3,4-tetrahydro-quinolin-3-ol]	> 500 nM	> 500 nM		
